Assay results from patent US20260102377A1, “COMPOSITIONS AND METHODS FOR TREATING MYASTHENIA GRAVIS” (priority 2022, published 2026).
Where “and” joins values, the source holds several entries; their conditions need not be identical. Equal entries are not always repeated. Entries after “also recorded” stand apart in the source; their conditions may differ.

Tests used:
[1] = tested on: soleus, EDL and diaphragm muscles from EAMG rats; experiment: Force measurement in isolated intact nerve-muscle preparations; set-up: species or system rat; details: for Relative force area after addition of NMD670 (Initial area = 100): NMD670 between 20 and 40 μM
Text: To allow for measurements of electrophysiological properties at the cellular level and for measurements of force, it was necessary to isolate nerve-muscle preparations from the rats. To this end, animals were sacrificed, and muscles were dissected out with 1 to 3 cm of intact nerve. The nerve-muscle preparations were then transferred to the organ baths used for the particular experiments (see below) and perfused with Normal Krebs-Ringer (NKR) solution, consisting of (in mM); 122 NaCl, 25 NaHCO3, 2.8 KCl, 1.2 KH2PO4, 1.2 MgSO4 1.27 CaCl2 and 5 D-glucose. This NKR solution was continuously gassed with a mixture of 95% oxygen and 5% CO2, to maintain a pH of approx. 7.4. In some experiments methyl-sulphate was used to replace Cl^− in the solution. All chemicals used were of analytical grade.
To determine whether enhanced neuromuscular transmission with CIC-1 inhibition could restore force in whole muscles from EAMG animals, experiments were conducted with soleus, extensor digitorum longus, and diaphragm muscles from EAMG rats. All muscles were mounted on force transducers (FORT 250, WPI instruments DE) in pre-warmed chambers (30° C.) containing 20 mL NKR each. The acquisition program Signal (version 6.4, Cambridge Electronics Design Ltd, Cambridge, UK) was used to control stimulation, delivered by an isolated stimulator (isostim 01D NPI electronics, DE) and for recording data via an analogue-digital converter (Micro 1401 Cambridge Electronics Design Ltd, Cambridge, UK). After equilibration in chambers, muscles were stretched to their optimal length and stimulated at a range of frequencies. For the duration of the experiment muscles were stimulated both directly and via the nerve at 12 V. This was accomplished by changing the stimulation pulse duration between 0.02 ms for nerve stimulation and 0.2 ms for direct stimulation of the muscle fibres. Muscles were stimulated every 10 min at 60 Hz for 1 second, either directly or via the nerve. To test for effect of NMD670 on force generation, different concentrations of NMD670 were added directly to the experimental chamber of the individual muscles.

[2] = tested on: healthy subjects; experiment: Phase I clinical trial Part A: tolerability/safety of single doses
Description: Part A1 tested single doses of NMD670 in a double-blind, randomised, placebo-controlled, partial crossover and dose-escalating design in healthy male subjects (see the WHO International Clinicals Trials Registry Platform study reference NL8692). A total of nine dose levels were investigated in three cohorts of subjects. Each cohort consisted of nine subjects, each subject had three study sessions. Each subject received escalating doses of NMD670 on two occasions and placebo on one occasion, the order will be randomized in a cross-over fashion. Each dose level was randomized in a 6:3 ratio (active vs. placebo).
Therefore, for the remaining 2 doses, a full cross-over design investigating one previously tested dose level was used. […] To determine the effect of food on the exposure of single oral doses of NMD670, dose level 5 was administered in both the fasted and fed condition. Subjects who received dose level 5 returned for a fourth visit in which they received dose level 5 (or matching placebo) in the fed condition, in the same randomization as the chosen dose level in the fasted condition.
Part A2 of the study investigated the safety, tolerability and pharmacokinetics of NMD670 in 8 healthy female subjects of non-childbearing potential, in a randomized, double-blind, placebo-controlled single dose administration of NMD670. Subjects received 800 mg NMD670. Subjects were randomized in a 6:2 ratio (active vs. placebo).
The following endpoints were determined at time points indicated in the Schedule of Assessments. • Serious adverse events (SAEs) and adverse events (AEs) were collected throughout the study at every study visit. • Concomitant medication • Clinical laboratory tests • Haematology • Chemistry • Urinalysis • Coagulation • Vital signs • Pulse Rate (bpm) • Systolic blood pressure (mmHg) • Diastolic blood pressure (mmHg) • Respiratory rate • ECG • Heart Rate (HR) (bpm), PR, QRS, QT, QTcF • 24-hour Holter recording • Hand grip dynamometry • Grip release profile; time profile from 100% maximum voluntary contraction (MVC) to 5% of the 100% MVC

[3] = tested on: EAMG rats; experiment: Grip strength test after single dose of Mestinon and CIC-1 inhibitor alone or in combination; format: in vivo, rat
Description: To induce EAMG, 250 μL of emulsion of Complete Freund's Adjuvant, consisting of heat-inactivated Mycobacterium tuberculosis H37Ra in non-metabolizable oils, together with Phosphate-Buffered Saline (PBS) and 80 μg of the extracellular α-domain peptide fragment of the human nicotinic acetylcholine receptor (antigen) was injected subcutaneously in seven-week-old, anaesthetized Lewis rats. The disease-inducing antigen was supplied by the Hellenic Pasteur institute3. The emulsion was deposited at the tail base, left hindleg, and right foreleg. After injection, animals were allowed to recover and returned to their home cage maintained in ventilated racks under controlled temperature (20 to 22° C.) and humidity (˜55%) control, under a 12-h light/12-h dark cycle with food and water provided ad libitum. The animals had pathogen free status and the housing and changing system was designed to assure that the pathogen free status was preserved during the study. The EAMG rats were observed, weighed, and scored for MG symptoms weekly until symptoms of MG developed, whereafter animals were observed daily.
In EAMG animals with severe MG symptoms the effects of CIC-1 inhibitor and Mestinon (pyridostigmine) alone or in combination was assessed. […] The study was blinded to both the experimenter and during subsequent analysis. Animals were subjected to grip strength test before compound administration, as described above and then dosed per oral with either 0.375 mg/kg pyridostigmine bromide (Mestinon) (CAS-no 101-26-8), 20 mg/kg NMD670 or a combination of both pyridostigmine and NMD670. Grip strength was tested 45 minutes post dosing. […] The change in grip strengths was calculated for individual animals relative to the results obtained prior to administration of test article and then averaged.
Grip strength was measured on a BIOSEB BIO-GT3 Grip strength meter (force transducer, S/N 180271). […] Care was taken to ensure that the force recorded reflected the grip strength of the rat and not the force of the pulls conducted by the operator. […]

[4] = of a total of 70 AEs, Part A healthy subjects

C[C@H](Oc1ccc(Br)cc1-c1ccon1)C(=O)O [NMD670, (2S)-2-[4-bromo-2-(1,2-oxazol-3-yl)phenoxy]propanoic acid]
Force from isolated soleus muscle ([1]; 20 μM NMD670, nerve-stimulated at 60 Hz, EAMG rats): could be restored
Relative force area after addition of NMD670 (Initial area = 100) ([1]; Diaphragm (12) from EAMG rats): 120.2 ± 5.04
Relative force area after addition of NMD670 (Initial area = 100) ([1]; EDL (14) from EAMG rats): 235.1 ± 25.0
Force generation in isolated soleus, EDL and diaphragm muscles compared with muscles from healthy animals ([1]; NMD670 20 μM or between 20 and 40 μM, EAMG animals): restored force generation
Relative force area after addition of NMD670 (Initial area = 100) ([1]; Soleus (14) from EAMG rats): 199 ± 17.1
Healthy subjects with myotonic symptoms ([2]; 1200 mg QD, mild in intensity, resolved spontaneously within a few hours): 2 healthy subjects
AE with dose relationship, reported at the highest dose levels tested ([2]; 1200 mg and 1600 mg single dose, healthy subjects): transient myotonia
Subject discontinuations ([2]; Part A healthy subjects): no subject discontinuations
Total number of AEs reported ([2]; Part A, 35 healthy subjects, single-ascending dose study): 70 AEs
Serum uric acid ([2]; Phase 1 clinical study, considered non-clinically significant): dose-dependent decrease in serum uric acid
Intensity of most AEs ([2]; Phase 1 healthy subjects): mild and mild in intensity
Maximum tolerated dose ([2]; healthy subjects, based on myotonia): 1200 mg QD
AEs at least possibly drug-related (number) [2, 4]: 47 AEs
AEs at least possibly drug-related (proportion) [2, 4]: 67%
Myotonia at 1600 mg (intensity) ([2]; one healthy subject, single dose 1600 mg, spontaneously and fully resolved within hours, dose escalation stopped): myotonia of moderate intensity; also recorded: moderate in intensity; also recorded: Myotonia of moderate severity
Serious or severe adverse effects ([2]; single doses 50-1600 mg, healthy subjects): No serious or severe adverse effects; also recorded: No serious adverse reactions were reported
Relationship between increases in NMD670 dose and incidence of participants with AEs ([2]; single doses, healthy subjects): no meaningful relationships
Grip strength after administration (significance vs vehicle) ([3]; 45 minutes after dosing, 20 mg/kg NMD670, or with 0.375 mg/kg Mestinon): significantly increased
Increase in Pulled Force (%) ([3]; per oral, 45 minutes post dosing, 0.375 mg/kg Mestinon, 20 mg/kg NMD670 or both): 15±5% and 14.5 ± 5.1%
